Read-outs that look alike come from different tables or passages of the source.
How the values were obtained:
[1] = Stability testing as per ICH Guideline Q1A(R2), storage stability; format: physicochemical
Source text: Stability testing was done as per ICH Harmonised Tripaertite Guideline Stability Testing of New drug substances and Products Q1A(R2) issued by International Conference on Hamonization of technical requirements for registration of pharmaceuticals for human use and recommended for adoption at Step 4 of the ICH Process on 6 Feb.
Details are given on table nos 1 to 4 given in the following: […]

Particle size analysis = conditions: for particle size distribution at 90%: 90% of particles below this size
Procedure: The TGS crystals obtained were tested for purity and particle size.
The solids obtained were tested for purity, particle size and X ray diffraction for the nature of solid obtained.

[2] = Analysis against JECFA specifications: solubility; format: physicochemical; conditions: in ethyl acetate
[3] = Accelerated stability test, sealed containers incubated at 50° C.; format: physicochemical; conditions: sealed container; for Assay (%) / PH: listed as Crystalline TGS crystallized from butanol:methanol mixture
Procedure: For extrapolating potential storage stability beyond one year, an accelerated storage stability test was conducted. In this test, crystalline TGS of small and large mean particle size was incubated at 50° C. in sealed containers. Percent assay and pH were tested after each 24 hours for five successive days. […] A three days' stability in accelerated stability test is extrapolated by Catani et al (2005) to 8 years of storage stability at ambient temperature.
All the three samples were taken in sealed containers and were incubated at 50° C. […]

[4] = 25° C. ± 2° C. 60% RH ± 5% RH, 1st month
[5] = 25° C. ± 2° C. 60% RH ± 5% RH, 2nd month
[6] = 25° C. ± 2° C. 60% RH ± 5% RH, 3rd month
[7] = 25° C. ± 2° C. 60% RH ± 5% RH, 4th month
[8] = 25° C. ± 2° C. 60% RH ± 5% RH, 5th month
[9] = 25° C. ± 2° C. 60% RH ± 5% RH, 6th month
[10] = 25° C. ± 2° C. 60% RH ± 5% RH, 12th month
[11] = 25° C. ± 2° C. 60% RH ± 5% RH, 24th month
[12] = 25° C. ± 2° C. 60% RH ± 5% RH, INITIAL
[13] = 30° C. ± 2° C. 65% RH ± 5% RH, 1st month
[14] = 30° C. ± 2° C. 65% RH ± 5% RH, 2nd month
[15] = 30° C. ± 2° C. 65% RH ± 5% RH, 3rd month
[16] = 30° C. ± 2° C. 65% RH ± 5% RH, 4th month
[17] = 30° C. ± 2° C. 65% RH ± 5% RH, 5th month
[18] = 30° C. ± 2° C. 65% RH ± 5% RH, 6th month
[19] = 30° C. ± 2° C. 65% RH ± 5% RH, 12th month
[20] = 30° C. ± 2° C. 65% RH ± 5% RH, 24th month
[21] = 30° C. ± 2° C. 65% RH ± 5% RH, INITIAL
[22] = 40° C. ± 2° C. 75% RH ± 5% RH, 1st month
[23] = 40° C. ± 2° C. 75% RH ± 5% RH, 2nd month
[24] = 40° C. ± 2° C. 75% RH ± 5% RH, 3rd month
[25] = 40° C. ± 2° C. 75% RH ± 5% RH, 4th month
[26] = 40° C. ± 2° C. 75% RH ± 5% RH, 5th month
[27] = 40° C. ± 2° C. 75% RH ± 5% RH, 6th month
[28] = 40° C. ± 2° C. 75% RH ± 5% RH, 12th month
[29] = 40° C. ± 2° C. 75% RH ± 5% RH, 24th month
[30] = 40° C. ± 2° C. 75% RH ± 5% RH, INITIAL

OC[C@H]1O[C@H](O[C@]2(CCl)O[C@H](CCl)[C@@H](O)[C@@H]2O)[C@H](O)[C@@H](O)[C@H]1Cl [Crystalline TGS small particle size, 1′-6′-Dichloro-1′-6′-DIDEOXY-β-Fructofuranasyl-4-chloro-4-deoxy-galactopyranoside]
Appearance [1, 4]: Normal | Assay [1, 4]: 99.02% | Specific Rotation [1, 4]: +85.99° | Water content [1, 4]: 0.73% | Appearance [1, 5]: Normal | Assay [1, 5]: 99.04% | Specific Rotation [1, 5]: +84.63° | Water content [1, 5]: 0.63% | Appearance [1, 6]: Normal | Assay [1, 6]: 99.05% | Specific Rotation [1, 6]: +85.31° | Water content [1, 6]: 0.22% | Appearance [1, 7]: Normal | Specific Rotation [1, 7]: +84.20° | Water content [1, 7]: 0.41% | Appearance [1, 8]: Normal | Assay [1, 8]: 98.42% | Specific Rotation [1, 8]: +87.22° | Water content [1, 8]: 0.17% | Appearance [1, 9]: Normal | Assay [1, 9]: 99.07% | Specific Rotation [1, 9]: +86.78° | Water content [1, 9]: 0.23% | Appearance [1, 10]: Normal | Assay [1, 10]: 99.02% | Specific Rotation [1, 10]: +85.93° | Water content [1, 10]: 0.33% | Appearance [1, 11]: Normal | Assay [1, 11]: 98.78% | Specific Rotation [1, 11]: +84.63° | Water content [1, 11]: 0.53% | Appearance [1, 12]: Normal | Specific Rotation [1, 12]: +86.07° | Water content [1, 12]: 0.52% | Appearance [1, 13]: Normal | Specific Rotation [1, 13]: +86.01° | Water content [1, 13]: 0.69% | Appearance [1, 14]: Normal | Specific Rotation [1, 14]: +85.11° | Water content [1, 14]: 0.19% | Appearance [1, 15]: Normal | Assay [1, 15]: 100.62% | Specific Rotation [1, 15]: +86.29° | Water content [1, 15]: 0.28% | Appearance [1, 16]: Normal | Assay [1, 16]: 99.95% | Specific Rotation [1, 16]: +86.67° | Water content [1, 16]: 0.24% | Appearance [1, 17]: Normal | Assay [1, 17]: 99.88% | Specific Rotation [1, 17]: +87.58° | Water content [1, 17]: 0.18% | Appearance [1, 18]: Normal | Assay [1, 18]: 99.43% | Specific Rotation [1, 18]: +84.35° | Water content [1, 18]: 0.42% | Appearance [1, 19]: Normal | Specific Rotation [1, 19]: +85.62° | Water content [1, 19]: 0.66% | Appearance [1, 20]: Normal | Assay [1, 20]: 98.82% | Specific Rotation [1, 20]: +86.73° | Water content [1, 20]: 0.70% | Appearance [1, 21]: Normal | Specific Rotation [1, 21]: +86.07° | Water content [1, 21]: 0.52% | Appearance [1, 22]: Normal | Assay [1, 22]: 99.06% | Specific Rotation [1, 22]: +86.01° | Water content [1, 22]: 0.73% | Appearance [1, 23]: Normal | Assay [1, 23]: 99.04% | Specific Rotation [1, 23]: +86° | Water content [1, 23]: 1.10% | Appearance [1, 24]: Normal | Specific Rotation [1, 24]: +85.16° | Water content [1, 24]: 0.27% | Appearance [1, 25]: Normal | Specific Rotation [1, 25]: +85.81° | Water content [1, 25]: 0.22% | Appearance [1, 26]: Normal | Assay [1, 26]: 98.96% | Specific Rotation [1, 26]: +85.74° | Water content [1, 26]: 0.20% | Appearance [1, 27]: Normal | Assay [1, 27]: 98.82% | Specific Rotation [1, 27]: +82.67° | Water content [1, 27]: 0.49% | Appearance [1, 28]: Normal | Assay [1, 28]: 98.75% | Specific Rotation [1, 28]: +86.01° | Water content [1, 28]: 0.73% | Appearance [1, 29]: Normal | Assay [1, 29]: 98.52% | Specific Rotation [1, 29]: +86° | Water content [1, 29]: 1.10% | Appearance [1, 30]: Normal | Specific Rotation [1, 30]: +86.07° | Water content [1, 30]: 0.52% | stability in storage ([1]; storage, listed as crystalline TGS of this invention): stable in storage for one year | mean particle size (Particle size analysis): about 4.2 micron | particle size distribution at 90% (Particle size analysis; listed as Example 2): below 10 microns | particle size distribution at 90% (Particle size analysis; listed as crystallized product): < 10 microns | mean particle size (Particle size analysis; listed as Example 2): 4.2 micron | Solubility [2]: water. Slightly | Assay (%) ([3]; First day): 99.2% | PH ([3]; First day): 7.90 | Assay (%) ([3]; Fourth day): 99.12% | PH ([3]; Fourth day): 7.62 | percent assay as well as pH ([3]; over the test period): stable

From US20090208747A1, “Novel Crystalline Methods and Novel Crystalline and Amorphous forms of Halogenated Sugars” (V.B. MEDICARE PVT. LTD, priority 2006, published 2009)
